Results on 24 compounds are retold here after PMC3252304, “Hydroxybenzothiazoles as New Nonsteroidal Inhibitors of 17β-Hydroxysteroid Dehydrogenase Type 1 (17β-HSD1)” (PLoS ONE, 2012).

Test [1] has as its target T1, human 17β-HSD1 (Homo sapiens, UniProt P14061).
T1 construct: In the cell free assay, the placental cytosolic enzyme was used; from tissue; host or cells: human placenta, cytosolic fraction, ammonium sulfate precipitate
T1 sequence (P14061 1-328): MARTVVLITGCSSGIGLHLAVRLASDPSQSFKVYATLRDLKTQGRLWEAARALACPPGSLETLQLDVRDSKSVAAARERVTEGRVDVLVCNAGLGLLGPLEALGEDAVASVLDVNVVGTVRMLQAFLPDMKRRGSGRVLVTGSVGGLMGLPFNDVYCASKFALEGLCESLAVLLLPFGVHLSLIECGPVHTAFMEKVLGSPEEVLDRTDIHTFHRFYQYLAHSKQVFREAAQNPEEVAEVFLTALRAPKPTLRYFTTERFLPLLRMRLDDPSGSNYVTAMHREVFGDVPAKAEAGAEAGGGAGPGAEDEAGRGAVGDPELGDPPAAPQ
Description: 17β-HSD1 cell free assay (placental cytosolic enzyme, [3H]E1 to E2, HPLC radiodetection). It counts as biochemical. Conditions: for inhibition at 1 µM / 17β-HSD1 % inhib. (1µM): inhibitor 1 µM, less than 10% = inactive, ni = no inhibition; for inhibition at 1 µM / IC50 / 17β-HSD1 % inhib. (1µM): human placenta cytosolic fraction, [3H]E1 + E1 500 nM, NADH 500 µM; for inhibition at 1 µM: read-out: 17β-HSD1 % inhib. (1µM); for IC50: mean of three determinations.
Description: In the cell free assay, the placental cytosolic enzyme was used. Tritiated E1 (final concentration: 500 nM) was incubated with 17β-HSD1, NADH (500 µM), and inhibitor as previously described [59]. After high performance liquid chromatography (HPLC) separation of substrate and product, the amount of labeled E2 formed was quantified.
Inhibitory activities were evaluated by an established method with minor modifications. Briefly, the enzyme preparation was incubated with NADH [500 µM] in the presence of potential inhibitors at 37 °C in a phosphate buffer (50 mM) supplemented with 20 % of glycerol and EDTA (1mM). Inhibitor stock solutions were prepared in DMSO. The final concentration of DMSO was adjusted to 1 % in all samples. The enzymatic reaction was started by addition of a mixture of unlabelled- and [2, 4, 6, 7-^3H]-E1 (final concentration: 500 nM, 0.15 µCi). After 10 min, the incubation was stopped with HgCl2 and the mixture was extracted with diethylether. After evaporation, the steroids were dissolved in acetonitrile. E1 and E2 were separated using acetonitrile/water (45:55) as mobile phase in a C18 reverse phase chromatography column (Nucleodur C18 Gravity, 3 µm, Macherey-Nagel, Düren) connected to a HPLC-system (Agilent 1100 Series, Agilent Technologies, Waldbronn). Detection and quantification of the steroids were performed using a radioflow detector (Berthold Technologies, Bad Wildbad). The conversion rate was calculated after analysis of the resulting chromatograms according to the following equation: % conversion = % E2/(% E2 + % E1) × 100. Each value was calculated from at least three independent experiments.

In test [2] the target is T2, human 17β-HSD2 (Homo sapiens, UniProt P37059).
T2 construct: 17β-HSD2 was obtained from the microsomal fraction; from tissue; host or cells: human placenta, microsomal fraction
T2 sequence (P37059 1-387): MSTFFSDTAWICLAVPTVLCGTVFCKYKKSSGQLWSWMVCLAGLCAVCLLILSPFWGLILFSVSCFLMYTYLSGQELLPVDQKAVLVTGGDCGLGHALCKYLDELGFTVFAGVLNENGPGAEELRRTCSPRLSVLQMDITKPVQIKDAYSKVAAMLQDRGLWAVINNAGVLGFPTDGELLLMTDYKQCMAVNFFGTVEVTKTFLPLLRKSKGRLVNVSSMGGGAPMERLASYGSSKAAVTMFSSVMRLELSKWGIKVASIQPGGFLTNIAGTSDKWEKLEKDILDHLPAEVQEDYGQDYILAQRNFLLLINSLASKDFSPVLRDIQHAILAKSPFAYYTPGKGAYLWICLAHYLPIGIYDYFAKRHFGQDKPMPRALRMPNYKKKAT
Description: 17β-HSD2 cell free assay (placental microsomal enzyme, [3H]E2 to E1, HPLC radiodetection). Conditions: for IC50: human placenta microsomal fraction, [3H]E2 + E2 500 nM, NAD+ 1500 µM, mean of three determinations; for SF, selectivity factor = IC50(17β-HSD2)/IC50(17β-HSD1): ratio of cell free IC50 values. It counts as biochemical. The procedure:
Placental microsomal 17β-HSD2 was incubated with tritiated E2 (final concentration: 500 nM) in the presence of NAD^+ (1500 µM) and inhibitor. Separation and quantification of labeled substrate (E2) and product (E1) was performed by HPLC using radiodetection.
17β-HSD1 and 17β-HSD2 were obtained from human placenta according to previously described procedures. Fresh human placenta was homogenized and cytosolic fraction and microsomes were separated by centrifugation. For the partial purification of 17β-HSD1, the cytosolic fraction was precipitated with ammonium sulfate. 17β-HSD2 was obtained from the microsomal fraction.
Inhibition of 17β-HSD2. The 17β-HSD2 inhibition assay was performed similarly to the 17β-HSD1 procedure. The microsomal fraction was incubated with NAD^+ [1500 µM], test compound and a mixture of unlabelled- and [2, 4, 6, 7-^3H]-E2 (final concentration: 500 nM, 0.11 µCi) for 20 min at 37 °C. Further treatment of the samples and HPLC separation were carried out as mentioned above.
The conversion rate was calculated after analysis of the resulting chromatograms according to the following equation: % conversion = % E1/(% E1 + % E2) × 100.

The subject of test [3] is ERs. Also on record: method as in PMID 15743715, PMID 16728493. Conditions: RBA(E2) = 100%; cited from earlier work.
In test [4] the test system is 17β-HSD1. On the set-up: method as in PMID 12223444. Conditions: recombinant protein, NADPH as cosubstrate; value as described; read-out: 17β-HSD1 IC50 (external reference); cited from earlier work.

Molecules are shown by their SMILES.

Regarding `Cc1nc(C(=O)c2cccc(O)c2)sc1CCO` [Compound 5, [5-(2-hydroxyethyl)-4-methyl-1,3-thiazol-2-yl](3-hydroxyphenyl)methanone], the inhibition at 1 µM in test [1] worked out at 34%.

In the case of `O=C(c1cccc(O)c1)c1nc2ccc(O)cc2s1` [Compound 6, (6-hydroxy-1,3-benzothiazol-2-yl)(3-hydroxyphenyl)methanone], in test [1], the IC50 came out at 44 nM and the inhibition at 1 µM was 91%. In addition, in test [2], the IC50 turned out to be 1040 nM and the “SF, selectivity factor = IC50(17β-HSD2)/IC50(17β-HSD1)” value is 24.

With `COc1cccc(C(=O)c2nc3ccc(OC)cc3s2)c1` [Compound 6i], the “17β-HSD1 % inhib. (1µM)” value in test [1] is on record as “ni”.

Take `Oc1cccc(C(O)c2nc3ccc(O)cc3s2)c1` (stereo not shown) [Compound 7]: the inhibition at 1 µM in test [1] amounted to 28%.

Turning to `COC(c1cccc(O)c1)c1nc2ccc(O)cc2s1` (stereo not shown) [Compound 8], the inhibition at 1 µM in test [1] worked out at 13%.

In the case of `CSC(c1ccc(O)cc1)c1nc2ccc(O)cc2s1` (stereo not shown) [Compound 9], in test [1], the “17β-HSD1 % inhib. (1µM)” value is given as “ni” and the inhibition at 1 µM was found to be 7%.

In the case of `COc1ccc2nc(Cc3ccc(O)cc3)sc2c1` [Compound 10], the “17β-HSD1 % inhib. (1µM)” value in test [1] was “ni”.

With `Oc1ccc(Cc2nc3ccc(O)cc3s2)cc1` [Compound 11], the inhibition at 1 µM in test [1] is 24%.

Turning to `O=C(c1cccc(O)c1)c1nc2ccccc2s1` [Compound 12, 1,3-benzothiazol-2-yl(3-hydroxyphenyl)methanone], the “fold lower 17β-HSD1 inhibitory activity than 6” value in test [1] (compared with compound 6) is 8 fold. Besides, in test [1], the concentration for half-maximal inhibition (IC50) came to 365 nM and the inhibition at 1 µM was 75%. In addition, in test [2], the IC50 is 1360 nM and the “SF, selectivity factor = IC50(17β-HSD2)/IC50(17β-HSD1)” value is 4.

`COc1ccc(C(=O)c2nc3ccc(O)cc3s2)cc1` [Compound 13, (6-hydroxy-1,3-benzothiazol-2-yl)(4-methoxyphenyl)methanone]: in test [1], the inhibition at 1 µM amounted to 27%.

For the compound `O=C(c1ccc(O)cc1)c1nc2ccc(O)cc2s1` [Compound 14, (6-hydroxy-1,3-benzothiazol-2-yl)(4-hydroxyphenyl)methanone], in test [1], the IC50 came out at 243 nM and the inhibition at 1 µM came to 85%. For the same compound, in test [2], the IC50 was 2470 nM and the “SF, selectivity factor = IC50(17β-HSD2)/IC50(17β-HSD1)” value is listed as 10.

As for `COc1ccc2nc(C(=O)Nc3ccccc3O)sc2c1` [Compound 15], the “17β-HSD1 % inhib. (1µM)” value in test [1] is “ni”.

On to `O=C(Nc1ccccc1O)c1nc2ccc(O)cc2s1` [Compound 16], for which the “17β-HSD1 % inhib. (1µM)” value in test [1] is reported as “ni”.

In the case of `COc1ccc2nc(C(=O)Nc3cccc(O)c3)sc2c1` [Compound 17], in test [1], the inhibition at 1 µM amounted to 31%.

For the compound `O=C(Nc1cccc(O)c1)c1nc2ccc(O)cc2s1` [Compound 18], in test [1], the IC50 worked out at 1310 nM and the inhibition at 1 µM was found to be 40%. In test [2], the IC50 was 3810 nM and the “SF, selectivity factor = IC50(17β-HSD2)/IC50(17β-HSD1)” value was determined as 3.

Turning to `COc1ccc(C(=O)Nc2nc3ccc(O)cc3s2)cc1` [Compound 19], in test [1], the “17β-HSD1 % inhib. (1µM)” value is “ni”.

Regarding `O=C(Nc1nc2ccc(O)cc2s1)c1ccc(O)cc1` [Compound 20], the inhibition at 1 µM in test [1] amounted to 39%.

Regarding `O=C(Nc1nc2ccc(O)cc2s1)c1cccc(O)c1` [Compound 21], the inhibition at 1 µM in test [1] amounted to 83%. The IC50 in test [2] came out at 9260 nM.

As to `O=S(=O)(Nc1nc2ccc(O)cc2s1)c1cccc(O)c1` [Compound 22], the “17β-HSD1 % inhib. (1µM)” value in test [1] was “inactive and ni”.

Turning to `O=C(Nc1cccc(O)c1)Nc1nc2ccc(O)cc2s1` [Compound 23], in test [1], the “17β-HSD1 % inhib. (1µM)” value was “inactive and no inhibition and ni”.

As for `Oc1cccc(NC(=S)Nc2nc3ccc(O)cc3s2)c1` [Compound 24], in test [1], the “17β-HSD1 % inhib. (1µM)” value is recorded as “moderate inhibitory activity” and the inhibition at 1 µM was 62%.

As for `O=C(Cc1cccc(O)c1)Nc1nc2ccc(O)cc2s1` [Compound 25], in test [1], the “17β-HSD1 % inhib. (1µM)” value is “inactive and ni”.

With `C[C@]12CC[C@@H]3c4ccc(O)cc4CC[C@H]3[C@@H]1CCC2=O` [Compound E1, estrone], the “RBA for the ERs” value in test [3] is on record as “about 10%”.

Turning to `C[C@]12CC[C@@H]3c4ccc(O)cc4CC[C@H]3[C@@H]1C[C@H](CCCCCCCCC(=O)OCC1OC(n3cnc4c(N)ncnc43)C(O)C1O)[C@@H]2O` (stereo partly shown) [EM-1745], the IC50 in test [4] is 52 nM.

As usually defined, the IC50 is the midpoint of a concentration-inhibition curve.
